“Also recorded” adds a separate entry of the source. Non-standard residues stand in square brackets, D forms with d. No end group written: not given here.
System: oleic acid induced acute lung injury
Assay: Oleic acid induced acute lung injury (ALI) in anesthetized, ventilated rats
Format: in vivo, male Sprague-Dawley rats
Conditions: rat
Experimental: Experiments were performed in male Sprague-Dawley rats (Charles River Wiga GmbH, Sulzfeld, Germany) with a body weight (bw) of 330-360 g. Animals received care in accordance with the Guide for the Care and Use of Laboratory Animals (Institute of Laboratory Animal Resources, 7th edition 1996). The study was approved by the local animal care and use committee.
Rats were anesthetized by intraperitoneal injection of medetomidine (0.5 mg/kg bw, Domitor®, Dr. E. Graeub AG, Basel, Switzerland), fentanyl (0.05 mg/kg bw, JanssenCilag, Neuss, Germany) and midazolam (5 mg/kg bw, Dormicum®, Roche, Basel, Switzerland) as previously described (17). Following tracheotomy, the trachea was cannulated and ventilation was established (Advanced Animal Respirator, TSE Systems GmbH, Bad Homburg, Germany) with a tidal volume of 6 ml/kg bw at 80 breaths/min. Catheters (internal diameter 0.58 mm; Sims Portex Ltd., Hythe, United Kingdom) were introduced into the left carotid artery and the right internal jugular vein for monitoring of arterial blood pressure (AP), fluid replacement and drug delivery as previously described (18). An ultrasonic flowprobe (Transonic®, Transonic Systems Inc., Ithaca, N.Y.) was placed around the ascending aorta distal to the branching of the coronary arteries for continuous monitoring of cardiac output (CO). After median thoracotomy, a catheter was introduced via the right ventricle into the pulmonary artery for measurement of pulmonary artery pressure (PAP). AP, PAP and CO were continuously recorded by the software package DasyLab 32 (DasyLab, Moenchengladbach, Germany). Pulmonary vascular resistance (PVR) was calculated as arteriovenous pressure differences over flow under the assumption of a constant left atrial pressure of 2 mmHg.
In group 2 (OA), ALI was induced by intravenous infusion of 0.2 mg/kg oleic acid (Sigma, Munich, Germany) over 30 min in the absence of any treatment. In group 3 (OA+Ang-(1-7)), ALI was induced as in group II, and infusion of Ang-(1-7) at 5 pmol/kg per min was initiated immediately after ALI induction. In group 4 (OA+AVE0991), ALI was induced as in group II, and infusion of AVE0991 at 500 pmol/kg per min was initiated immediately after ALI induction. In two additional groups of n=6 each, in which only myeloperoxidase (MPO) activity was measured, infusion of the Ang-(1-7) receptor blocker A779 (10 pmol/kg per min) was initiated either alone (group 5) or in combination with Ang-(1-7) (5 pmol/kg per min; group 6) immediately after induction of ALI.
After surgical preparation and hemodynamic stabilization over at least 15 min, baseline hemodynamics were recorded and arterial blood gases analyzed (RapidLab 348; Chiron Diagnostics GmbH, Fernwald, Germany). Removed blood volume was replaced by hydroxyethyl starch (6% hydroxyethyl starch 200/0.6; Fresenius, Bad Homburg, Germany). Immediately after baseline recordings, 0.2 mg/kg oleic acid was infused intravenously over 30 min in groups II-VI or an equal volume of 0.9% NaCl in group I. In all groups, measurements were repeated in 60 min intervals up to a total of 4 h at which time animals were sacrificed by exsanguination. After in situ ligation of the right main bronchus, lungs were excised and processed for determination of wet-to-dry weight ratio and myeloperoxidase (MPO) activity as described below.
For determination of lung water content, wet-to-dry weight ratio was measured by use of the microwave drying technique (18). Recruitment of inflammatory cells was analyzed by measurements of MPO activity in lung homogenates as previously described (19). In brief, MPO activity was determined by a 3,3′-5,5′-tetramethylbenzidine (TMB)-based photometric assay, compared to appropriate standard curves, and expressed as units per gram lung tissue (U/g).
All data are presented as mean±SEM. Data were tested by Kruskal-Wallis test for differences between groups. Statistical significance was assumed at P<0.05.

Substance | rescue effect of Ang-(1-7) infusion on OA-induced ALI (lung MPO activity) (A779 10 pmol/kg per min in combination with Ang-(1-7) 5 pmol/kg per min after OA, only MPO measured) | OA-induced ALI (lung MPO activity) (A779 infusion 10 pmol/kg per min alone after OA, only MPO measured) | OA-induced change in lung wet-to-dry weight ratio (Ang-(1-7) infusion 5 pmol/kg per min after OA, 4 h, FIG. 1(B)) | systemic arterial pressure (systemic hypotension in OA-infused rats) (Ang-(1-7) infusion 5 pmol/kg per min after OA, 4 h, FIG. 1(C)) | OA-induced change in pulmonary vascular resistance (Ang-(1-7) infusion 5 pmol/kg per min after OA, 4 h, FIG. 1(D)) | OA-induced change in lung MPO activity (Ang-(1-7) infusion 5 pmol/kg per min after OA, 4 h, lung homogenates, FIG. 1(A)) | development of OA-induced ALI (OA 0.2 mg/kg i.v. over 30 min, Ang-(1-7) infusion 5 pmol/kg per min started immediately after ALI induction, 4 h) | lung oedema and inflammation in oleic-acid induced ALI (infusion after OA, conclusion of the study)
Asp^1-Arg^2-Val^3-Tyr^4-Ile^5-His^6-D-Ala^7 (DRVYIH[dA]) [A779, reference compound] | blocks the rescue effect of Ang-(1-7) infusion; also recorded: lost after Mas blockade | aggravates OA-induced ALI; also recorded: aggravated after Mas blockade | – | – | – | – | – | –
Asp^1-Arg^2-Val^3-Tyr^4-Ile^5-His^6-Pro^7 [Ang-(1-7)] | – | – | abrogated OA-induced changes | attenuated systemic hypotension | abrogated OA-induced changes | abrogated OA-induced changes | completely prevented the development of OA-induced ALI | completely prevents lung oedema and inflammation

Source: patent US20140073760A1, “USE OF AN ANG-(1-7) RECEPTOR AGONIST IN ACUTE LUNG INJURY” (Charite-Universitatsmedizin Berlin, priority 2008, published 2014)
